Where “and” joins values, the source holds several entries; their conditions need not be identical. Equal values may be shown once. Entries after “also recorded” stand apart in the source; their conditions may differ. Read-outs that look alike come from different tables or passages of the source.
Key:
[1] = system: TNFα; assay: LPS-induced TNFα secretion from BV2 cells (CBA assay); assay type: cell-based, murine; conditions: for suppression of TNFα production vs control: 100 ng/mL LPS 24 hours
Protocol: (§1) Lipopolysaccharide (LPS) is a natural ligand of the TLR4/CD14 complex, which is highly expressed on myeloid cells
(§2) LPS was used to induce cytokine secretion from BV-2 cells. Cells were incubated with TQS-168 at various concentrations to assess whether TQS-168 could suppress the LPS-promoted release of various cytokines from in vitro cell cultures. Cytokine secretion was measured by cytometric bead array (CBA) fluorescence-activated cell sorting (FACS).
(§3) Briefly, a vial of BV2 frozen stock (1 million cells per ml in complete medium) was thawed into 10 mL of complete medium per vial for a total of 4 vials. The vials were then centrifuged at 1800 rpm for 3 minutes to wash away freezing media. The four vials were then pooled into 25 mL of complete medium. TQS-168 was prepared in DMSO.
(§4) Cells were incubated for 24 hours in the presence of medium (negative control), LPS (positive control), DMSO+LPS (positive control, controlling additionally for presence of DMSO in the TQS-168 stock solution), or LPS+TQS-168 at final concentrations of 1 μM, 5 μM, 10 μM, and 20 μM.
After the well plates were incubated overnight for 24 hours, they were centrifuged at 1800 rpm for 5 minutes. Next, 150 μl from each well was transferred to a new set of plates, of which 50 μl was used for CBA. The plates were then centrifuged with the cells, followed by addition of 100 μL of DAPI (50 ml of PBS+10 μL of DAPI stock at 1:5000 dilution). The plates were then incubated in the dark for 5 minutes, followed by addition of 100 μL of PBS and centrifuged at 1800 rpm for 5 minutes. Finally, the plates were resuspended in 200 μL of PBS and tested.
Multiplexed cytometric bead array (CBA) assay was performed according to standard techniques to detect presence in the cell culture medium of secreted murine TNFα, IL-6, IFNγ, IL-12, monocyte chemoattractant protein 1 (MCP-1), and IL-10.
A total of 4-11 replicates of BV2 cultures in different conditions were investigated. […]

[2] = system: IL-6; assay: LPS-induced IL-6 secretion from BV2 cells (CBA assay); assay type: cell-based, murine; conditions: 1-20 μM
Protocol: as §1, §2, §3, §4
After the well plates were incubated overnight for 24 hours, they were centrifuged at 1800 rpm for 5 minutes. Next, 150 μl from each well was transferred to a new set of plates, of which 50 μl was used for CBA. […]

[3] = Tissue concentrations (plasma, brain, liver) after single oral dose 25 mg/kg in mice; assay type: in vivo
Protocol: In a first experiment, a total of 3-4 male C57BL6/J mice were administered a single dose of TQS-168 by oral gavage at 25 mg/kg. TQS-168 was prepared for oral gavage as a suspension with 0.5% methylcellulose in PBS.
Tissues were collected at various time points after dosing and processed for LC-MS analyses of TQS-168 concentrations. The tissues analyzed include plasma, brain, and liver. Animals were perfused thoroughly with 20 mL ice cold PBS before brain and liver collection to remove contaminating blood. Data are shown in Table 1 (TQS-168 concentrations in ng/mL).

[4] = Plasma concentrations after single intravenous dose in rats; assay type: in vivo; conditions: male, Sprague Dawley, rat, 0.5 mg/kg intravenous
Protocol: A total of 3 male, 7-9 week old, Sprague Dawley rats from Vital River were administered a single intravenous dose of TQS-168 at 0.5 mg/kg, in a volume of 0.5 mL/kg. TQS-168 was prepared in solution of 31.6% DMAC+36.8% ethanol+31.6% propylene glycol.
Blood samples were collected at 0.5, 3, 10, 30, 60, 120, 240, 480 and 720 minutes after a single dose of TQS-168 and then processed. Blood samples were collected via saphenous vein puncture into a K2EDTA tube, centrifuged at 4° C. at 4600 rpm for 5 minutes, and plasma collected and stored at less than −20° C. prior to being analyzed by LC-MS for TQS-168 concentrations. Data are presented as concentrations of TQS-168 (ng/mL) in plasma and graphed in FIG. 15 (individual rats) and 16 (average).

[5] = 25 mg/kg p.o., 0.0 minutes, individual animal, 25 mg/kg
[6] = 25 mg/kg p.o., 15.0 minutes, individual animal, 25 mg/kg
[7] = 25 mg/kg p.o., 60.0 minutes, individual animal, 25 mg/kg
[8] = 25 mg/kg p.o., 120.0 minutes, individual animal, 25 mg/kg
[9] = 25 mg/kg p.o., 240.0 minutes, individual animal, 25 mg/kg
[10] = 25 mg/kg p.o., 480.0 minutes, individual animal, 25 mg/kg
[11] = 25 mg/kg p.o., 1440.0 minutes, individual animal, 25 mg/kg
[12] = 25 mg/kg p.o., 2880.0 minutes, individual animal, 25 mg/kg

CC(C)(C)c1ccc(-c2nc3ccccc3[nH]2)cc1 [TQS-168, 2-(4-tert-butylphenyl)-1H-benzimidazole]
suppression of TNFα production vs control ([1]; 5 μM): can suppress TNFα production; also recorded: inhibition of TNFα production
suppression of TNFα production vs control ([1]; 20 μM): can suppress TNFα production; also recorded: inhibition of TNFα production
reduction of LPS-induced TNFα secretion, dose response ([1]; 1-20 μM): concentration-dependent; also recorded: dose-responsive inhibition
reduction of LPS-induced IL-6 secretion, dose response [2]: concentration-dependent; also recorded: dose-responsive inhibition
concentration in brain [3, 5]: 4.2 ng/mL and 10.7 ng/mL and 22.8 ng/mL
concentration in liver [3, 5]: 2.4 ng/mL and 0.4 ng/mL and 0.7 ng/mL
concentration in plasma [3, 5]: 0.5 ng/mL and 0.1 ng/mL and 0.0 ng/mL
concentration in brain [3, 6]: 21.6 ng/mL and 42.0 ng/mL and 35.2 ng/mL
concentration in liver [3, 6]: 268.0 ng/mL and 496.0 ng/mL and 575.0 ng/mL and 431.5 ng/mL
concentration in plasma [3, 6]: 12.6 ng/mL and 18.6 ng/mL and 14.6 ng/mL
concentration in brain [3, 7]: 253.0 ng/mL and 755.0 ng/mL and 530.0 ng/mL and 630.0 ng/mL
concentration in liver [3, 7]: 1060.0 ng/mL and 2725.0 ng/mL and 1940.0 ng/mL and 2175.0 ng/mL
concentration in plasma [3, 7]: 107.0 ng/mL and 47.0 ng/mL and 57.4 ng/mL and 86.0 ng/mL
concentration in brain [3, 8]: 282.0 ng/mL and 150.5 ng/mL and 242.5 ng/mL
concentration in liver [3, 8]: 305.5 ng/mL and 2080.0 ng/mL and 1070.0 ng/mL and 1725.0 ng/mL
concentration in plasma [3, 8]: 110.0 ng/mL and 43.8 ng/mL and 88.6 ng/mL and 131.0 ng/mL
concentration in brain [3, 9]: 399.0 ng/mL and 143.0 ng/mL and 188.0 ng/mL and 10.6 ng/mL
concentration in liver [3, 9]: 60.5 ng/mL and 1520.0 ng/mL and 216.5 ng/mL and 680.0 ng/mL
concentration in plasma [3, 9]: 46.8 ng/mL and 175.0 ng/mL and 3.4 ng/mL and 14.0 ng/mL
concentration in brain [3, 10]: 34.8 ng/mL and 20.9 ng/mL and 5.3 ng/mL and 18.2 ng/mL
concentration in liver [3, 10]: 431.5 ng/mL and 50.5 ng/mL and 37.6 ng/mL and 147.5 ng/mL
concentration in plasma [3, 10]: 6.0 ng/mL and 2.7 ng/mL and 1.8 ng/mL and 10.9 ng/mL
concentration in plasma ([3]; 25 mg/kg p.o., 1440.0 minutes, individual animal): 0.0 ng/mL
concentration in brain [3, 11]: 36.3 ng/mL and 8.5 ng/mL and 10.5 ng/mL and 55.5 ng/mL
concentration in liver [3, 11]: 4.0 ng/mL and 2.6 ng/mL and 0.8 ng/mL and 8.7 ng/mL
concentration in plasma ([3]; 25 mg/kg p.o., 2880.0 minutes, individual animal): 0.0 ng/mL
concentration in brain [3, 12]: 0.0 ng/mL and 3.0 ng/mL and 2.5 ng/mL and 0.7 ng/mL
concentration in liver [3, 12]: 0.0 ng/mL (3×) and 1.0 ng/mL
concentration at 0 min ([3]; male, C57BL6/J, mouse, brain, po, 25 mg/kg, 25 mg/kg p.o., 0.0 minutes, average, read-out: concentration in brain): 12.6 ng/mL
concentration at 15 min ([3]; male, C57BL6/J, mouse, brain, po, 25 mg/kg, 25 mg/kg p.o., 15.0 minutes, average, read-out: concentration in brain): 34.7 ng/mL
concentration at 15 minutes ([3]; male, C57BL6/J, mouse, brain, po, 25 mg/kg, 25 mg/kg p.o., 15.0 minutes, individual animal): 40.2 ng/mL
concentration at 60 min ([3]; male, C57BL6/J, mouse, brain, po, 25 mg/kg, 25 mg/kg p.o., 60.0 minutes, average, read-out: concentration in brain): 542 ng/mL
concentration at 120 min ([3]; male, C57BL6/J, mouse, brain, po, 25 mg/kg, 25 mg/kg p.o., 120.0 minutes, average, read-out: concentration in brain): 236 ng/mL
concentration at 120 minutes ([3]; male, C57BL6/J, mouse, brain, po, 25 mg/kg, 25 mg/kg p.o., 120.0 minutes, individual animal): 270 ng/mL
concentration at 240 min ([3]; male, C57BL6/J, mouse, brain, po, 25 mg/kg, 25 mg/kg p.o., 240.0 minutes, average, read-out: concentration in brain): 185 ng/mL
concentration at 480 min ([3]; male, C57BL6/J, mouse, brain, po, 25 mg/kg, 25 mg/kg p.o., 480.0 minutes, average, read-out: concentration in brain): 19.8 ng/mL
concentration at 1440 min ([3]; male, C57BL6/J, mouse, brain, po, 25 mg/kg, 25 mg/kg p.o., 1440.0 minutes, average, read-out: concentration in brain): 27.7 ng/mL
concentration at 2880 min ([3]; male, C57BL6/J, mouse, brain, po, 25 mg/kg, 25 mg/kg p.o., 2880.0 minutes, average, read-out: concentration in brain): 1.5 ng/mL
concentration at 0 min ([3]; male, C57BL6/J, mouse, liver, po, 25 mg/kg, 25 mg/kg p.o., 0.0 minutes, average, read-out: concentration in liver): 1.2 ng/mL
concentration at 15 min ([3]; male, C57BL6/J, mouse, liver, po, 25 mg/kg, 25 mg/kg p.o., 15.0 minutes, average, read-out: concentration in liver): 443 ng/mL
concentration at 60 min ([3]; male, C57BL6/J, mouse, liver, po, 25 mg/kg, 25 mg/kg p.o., 60.0 minutes, average, read-out: concentration in liver): 1980 ng/mL
concentration at 120 min ([3]; male, C57BL6/J, mouse, liver, po, 25 mg/kg, 25 mg/kg p.o., 120.0 minutes, average, read-out: concentration in liver): 1300 ng/mL
concentration at 240 min ([3]; male, C57BL6/J, mouse, liver, po, 25 mg/kg, 25 mg/kg p.o., 240.0 minutes, average, read-out: concentration in liver): 619 ng/mL
concentration at 480 min ([3]; male, C57BL6/J, mouse, liver, po, 25 mg/kg, 25 mg/kg p.o., 480.0 minutes, average, read-out: concentration in liver): 167 ng/mL
concentration at 1440 min ([3]; male, C57BL6/J, mouse, liver, po, 25 mg/kg, 25 mg/kg p.o., 1440.0 minutes, average, read-out: concentration in liver): 4 ng/mL
concentration at 2880 min ([3]; male, C57BL6/J, mouse, liver, po, 25 mg/kg, 25 mg/kg p.o., 2880.0 minutes, average, read-out: concentration in liver): 0.3 ng/mL
Cmax ([3]; male, C57BL6/J, mouse, plasma, 25 mg/kg single oral dose): 93.4 ng/mL and 370 nM
concentration at 0 min ([3]; male, C57BL6/J, mouse, plasma, po, 25 mg/kg, 25 mg/kg p.o., 0.0 minutes, average, read-out: concentration in plasma): 0.2 ng/mL
concentration at 15 min ([3]; male, C57BL6/J, mouse, plasma, po, 25 mg/kg, 25 mg/kg p.o., 15.0 minutes, average, read-out: concentration in plasma): 16.2 ng/mL
concentration at 15 min ([3]; male, C57BL6/J, mouse, plasma, po, 25 mg/kg, 25 mg/kg p.o., 15.0 minutes, individual animal, read-out: concentration in plasma): 18.8 ng/mL
concentration at 60 min ([3]; male, C57BL6/J, mouse, plasma, po, 25 mg/kg, 25 mg/kg p.o., 60.0 minutes, average, read-out: concentration in plasma): 74.4 ng/mL
concentration at 120 min ([3]; male, C57BL6/J, mouse, plasma, po, 25 mg/kg, 25 mg/kg p.o., 120.0 minutes, average, read-out: concentration in plasma): 93.4 ng/mL
concentration at 240 min ([3]; male, C57BL6/J, mouse, plasma, po, 25 mg/kg, 25 mg/kg p.o., 240.0 minutes, average, read-out: concentration in plasma): 59.8 ng/mL
concentration at 480 min ([3]; male, C57BL6/J, mouse, plasma, po, 25 mg/kg, 25 mg/kg p.o., 480.0 minutes, average, read-out: concentration in plasma): 5.3 ng/mL
concentration at 1440 min ([3]; male, C57BL6/J, mouse, plasma, po, 25 mg/kg, 25 mg/kg p.o., 1440.0 minutes, average, read-out: concentration in plasma): 0 ng/mL
concentration at 1440 min ([3]; male, C57BL6/J, mouse, plasma, po, 25 mg/kg, 25 mg/kg p.o., 1440.0 minutes, individual animal, read-out: concentration in plasma): 0 ng/mL
concentration at 2880 min ([3]; male, C57BL6/J, mouse, plasma, po, 25 mg/kg, 25 mg/kg p.o., 2880.0 minutes, average, read-out: concentration in plasma): 0 ng/mL
concentration at 2880 min ([3]; male, C57BL6/J, mouse, plasma, po, 25 mg/kg, 25 mg/kg p.o., 2880.0 minutes, individual animal, read-out: concentration in plasma): 0 ng/mL
half-life [4]: 9.72 min
clearance ([4]; read-out: clearance rate (converted)): 155 mL/min/kg

From patent US20250281462A1, “THERAPEUTICALLY EFFECTIVE ORAL ADMINISTRATION OF A 2 ARYLBENZIMIDAZOLE” (Tranquis Therapeutics, Inc., priority 2021, published 2025)
